In the experiment the test system is BDF1 mice, L1210 6-MP/6-TG resistant leukemia ip, survival T/C. Put plainly: NCI In Vivo Anticancer Drug Screen. Data for tumor model L1210 Leukemia resistant to 6-MP and 6-Thioguanine; NSC 755, NSC 752 (intraperitoneal) in B6D2F1 (BDF1) mice. The settings on record: endpoint: mean survival time, schedule: Q01DX Z (ip), higher = longer survival. The procedure: The antitumor activity of compounds was measured in mice bearing transplantable tumors. Survival or tumor size were measured and the results are expressed as the measurement made in the treated group (T) divided by the measurement made in the vehicle treated control group (C). The tumor model used in this assay is L1210 Leukemia resistant to 6-MP and 6-Thioguanine; NSC 755, NSC 752 (intraperitoneal) in B6D2F1 (BDF1) mice

The mark [1] stands for this setting: dose: 93.0 mg/kg/injection, vehicle: carboxymethylcellulose (CMC).
Setting [2] is: dose: 125.0 mg/kg/injection, vehicle: carboxymethylcellulose (CMC).
[3] abbreviates: dose: 187.0 mg/kg/injection, vehicle: carboxymethylcellulose (CMC).
The mark [4] stands for this setting: dose: 250.0 mg/kg/injection, vehicle: carboxymethylcellulose (CMC).
[5] abbreviates: dose: 20.0 mg/kg/injection, vehicle: carboxymethylcellulose (CMC).
The mark [6] stands for this setting: dose: 30.0 mg/kg/injection, vehicle: carboxymethylcellulose (CMC).

Toxic doses and inconclusive results are not listed.

Turning to `O=C1C(NC(=O)C2CCCCC2)=C(N2CC2)C(=O)C(NC(=O)C2CCCCC2)=C1N1CC1`, the T/C was 99 % of control (dose: 31.0 mg/kg/injection, vehicle: carboxymethylcellulose (CMC)); 101 % of control (dose: 62.5 mg/kg/injection, vehicle: carboxymethylcellulose (CMC)); 93 % of control under setting [1]; 87 % of control under setting [2]; 92 % of control under setting [3]; 90 % of control under setting [4].
On to `O=c1[nH]c(=O)n(C2CC(O)C(CO)O2)cc1Br` (centres undefined), for which the T/C is 112 % of control under setting [5]; 114 % of control under setting [6]; 102 % of control (dose: 40.0 mg/kg/injection, vehicle: carboxymethylcellulose (CMC)); 98 % of control (dose: 60.0 mg/kg/injection, vehicle: carboxymethylcellulose (CMC)); 117 % of control under setting [1]; 115 % of control under setting [3]. Besides, the T/C was 112 % of control (dose: 375.0 mg/kg/injection, vehicle: carboxymethylcellulose (CMC)) and 109 % of control (dose: 500.0 mg/kg/injection, vehicle: carboxymethylcellulose (CMC)).
As to `O=C(O)CCCc1ccc(N(CCCl)CCCl)cc1`, the T/C (dose: 5.0 mg/kg/injection, vehicle: carboxymethylcellulose (CMC)) was 117 % of control; the T/C (dose: 10.0 mg/kg/injection, vehicle: carboxymethylcellulose (CMC)) was 114 % of control; the T/C under setting [5] is 115 % of control; the T/C under setting [6] was 89 % of control.
Take `CCCSc1ncnc2nc[nH]c12`: the T/C was 98 % of control (dose: 43.5 mg/kg/injection, vehicle: other); 105 % of control (dose: 87.0 mg/kg/injection, vehicle: other); 91 % of control (dose: 175.0 mg/kg/injection, vehicle: other).
For the molecule `NS(=O)(=O)c1ncnc2nc[nH]c12`, the T/C was 122 % of control (dose: 6.0 mg/kg/injection, vehicle: carboxymethylcellulose (CMC)); 112 % of control (dose: 25.0 mg/kg/injection, vehicle: saline); 96 % of control (dose: 50.0 mg/kg/injection, vehicle: saline).
Turning to `C=CC(CN1CC1)OC(C)=O` (centres undefined), the T/C by setting is: (dose: 3.0 mg/kg/injection, vehicle: saline) 116 % of control; (dose: 12.0 mg/kg/injection, vehicle: saline) 150 % of control; (dose: 15.0 mg/kg/injection, vehicle: saline) 91 % of control.
Consider `CCn1cnc2c(SC3CCCC3)ncnc21`, for which the T/C was 98 % of control under setting [2] and 98 % of control under setting [4].

Source of the values: PubChem BioAssay AID308 (DTP/NCI, 2004).
